Source: patent US11041000B2, “Peptide inhibitors of interleukin-23 receptor and their use to treat inflammatory diseases” (priority 2019, dated 2021)
Numbered stars: 1 amine (or outer) side, 2 acyl side, 3 side chain; on linkers, the order of the positions; unused ones are H or OH. Bridge positions count the residues as written; N and C are the ends. Square brackets hold non-standard residues; d marks the D form. Peptide text beside a SMILES is read from it. Trp(7-Me) = Cc1cccc2c(C[C@H](N)C(=O)O)c[nH]c12; Abu(4-yl) = O=C([C@H](CC[*:3])N[*:1])[*:2]; 2Nal = N[C@@H](Cc1ccc2ccccc2c1)C(=O)O; AEF = NCCOc1ccc(C[C@H](N)C(=O)O)cc1; Cit = NC(=O)NCCC[C@H](N)C(=O)O; Pen = CC(C)(S)[C@H](N)C(=O)O; αMeK = C[C@](N)(CCCCN)C(=O)O; Aib = CC(C)(N)C(=O)O; βAla = NCCC(=O)O

Key:
Type in all cases: in vitro ADME
[1] = Stability in simulated intestinal fluid (SIF); conditions: simulated intestinal fluid with pancreatin, pH 6.8, 37° C., matrix is 100 fold dilution of standard SIF concentration; for half-life at 20 μM: read-out: SIF t½ (converted); for SIF t½: 20 μM
Protocol: SIF was prepared by adding 6.8 g of monobasic potassium phosphate and 10.0 g of pancreatin to 1.0 L of water. After dissolution, the pH was adjusted to 6.8 using NaOH. DMSO stocks (2 mM) were first prepared for the test compounds. Aliquots of the DMSO solutions were dosed into 6 individual tubes, each containing 0.5 mL of SIF, which is pre-warmed to 37° C. The final test compound concentration was 20 μM. The vials were kept in a benchtop Thermomixer® for the duration of the experiment. At each timepoint (0, 5, 10, 20, 40, 60, or 360 minutes or 24 hours), 1.0 mL of acetonitrile containing 1% formic acid was added to one vial to terminate the reaction. Samples were stored at 4° C. until the end of the experiment. After the final timepoint is sampled, the tubes were mixed and then centrifuged at 3,000 rpm for 10 minutes. Aliquots of the supernatant were removed, diluted 1:1 into distilled water containing internal standard, and analyzed by LCMS/MS. Percent remaining at each timepoint was calculated based on the peak area response ratio of test to compound to internal standard. Time 0 was set to 100%, and all later timepoints were calculated relative to time 0. Half-lives were calculated by fitting to a first-order exponential decay equation using Graphpad.

[2] = Stability in human fecal homogenate; conditions: 20% fecal homogenate (supernatant), pH 6.8, 20% human fecal homogenate, anaerobic, 37° C., read-out: t½: Human Feces anaerobic (converted)
Protocol: (§1) Centrifuged the homogenate at 2800×g for 15 min. The supernatant is taken out and used for incubations. […] The final test compound concentration was 20 μM.

[3] = Stability in cynomolgus monkey fecal homogenate; conditions: 20% fecal homogenate (supernatant), pH 6.8, 20% cynomolgus monkey fecal homogenate, anaerobic, 37° C., read-out: t½: Monkey Feces anaerobic (converted)
Protocol: as §1

Stability in rat plasma = conditions: both sexes, SD rat plasma, EDTA, 37° C., read-out: t½: Rat Plasma EDTA (converted)
Protocol: Peptides of interest (20 μM) were incubated with pre-warmed rat plasma (SD rat, mixed gender pooled, EDTA, filtered through 0.22 μm, BioreclamationIVT) at 37° C. […] Quenched samples were stored at 4° C. until the end of the experiment and centrifuged at 4,000 rpm for 10 minutes. The supernatant were diluted 1:1 with deionized water and analyzed using LC-MS. Percentage remaining at each time point was calculated based on the peak area ratio (analyte over internal standard) relative to the initial level at time zero. Half-lives were calculated by fitting to a first-order exponential decay equation using GraphPad.

Row | Compound | half-life at 20 μM [1] [h] | half-life at 20 μM [2] [h] | further results
1 | CC(=O)NCCCC[C@@H]1NC(=O)[C@H](Cc2c[nH]c3c(C)cccc23)NC(=O)[C@H]([C@@H](C)O)NC(=O)[C@H](CC(N)=O)NC(=O)[C@@H](NC(C)=O)C(C)(C)SSC(C)(C)[C@@H](C(=O)N[C@@H](Cc2ccc(OCCN)cc2)C(=O)N[C@@H](Cc2ccc3ccccc3c2)C(=O)N[C@@](C)(CCCCN)C(=O)N[C@@H](CCCCNC(C)=O)C(=O)N[C@@H](CC(N)=O)C(=O)N[C@@H](Cc2c[nH]cn2)C(N)=O)NC1=O [SEQ ID No. 248, Ac-[Pen]-NT-[W(7-Me)]-[Lys(Ac)]-[Pen]-Phe[4-(2-aminoethoxy)]-[2-Nal]-[a-MeLys]-[Lys(Ac)]-N-H-NH2] | 32 | > 22.3 | 
2 | CC(=O)NCCCC[C@H](NC(=O)[C@](C)(CC(C)C)NC(=O)[C@H](Cc1ccc2ccccc2c1)NC(=O)[C@H](Cc1ccc(OCCN)cc1)NC(=O)[C@H]1NC(=O)[C@H](CCC(N)=O)NC(=O)[C@H](Cc2c[nH]c3c(C)cccc23)NC(=O)[C@H]([C@@H](C)O)NC(=O)[C@H](CC(N)=O)NC(=O)[C@@H](NC(C)=O)C(C)(C)SSC1(C)C)C(=O)N[C@H](C)C(=O)NCCC(N)=O [compound 209] | 15 |  | 
3 | CC(=O)NCCCC[C@H](NC(=O)[C@](C)(CC(C)C)NC(=O)[C@H](Cc1ccc2ccccc2c1)NC(=O)[C@H](Cc1ccc(OCCN)cc1)NC(=O)[C@H]1NC(=O)[C@H](CCC(N)=O)NC(=O)[C@H](Cc2c[nH]c3c(C)cccc23)NC(=O)[C@H]([C@@H](C)O)NC(=O)[C@H](CC(N)=O)NC(=O)[C@@H](NC(C)=O)C(C)(C)SSC1(C)C)C(=O)N[C@H](CO)C(=O)NCCC(N)=O [compound 222] | 19 |  | 
4 | CC(=O)NCCCC[C@H](NC(=O)[C@](C)(CCCCN)NC(=O)[C@H](Cc1ccc2ccccc2c1)NC(=O)[C@H](Cc1ccc(OCCN)cc1)NC(=O)[C@H]1NC(=O)[C@H](CCC(N)=O)NC(=O)[C@H](Cc2c[nH]c3c(C)cccc23)NC(=O)[C@H]([C@@H](C)O)NC(=O)[C@H](CCCNC(N)=O)NC(=O)[C@@H](NC(C)=O)C(C)(C)SSC1(C)C)C(=O)N[C@@H](CC(N)=O)C(=O)NCCC(N)=O [compound 238] (Ac-[Pen][Cit]T[Trp(7-Me)]Q[Pen][AEF][2Nal][αMeK]K(Ac)N[βAla]-NH2; disulfide 1-6) |  |  | SIF t½ [1]: 24 h
5 | CC(=O)NCCCC[C@@H]1NC(=O)[C@@H](NC(C)=O)C(C)(C)SSC(C)(C)[C@@H](C(=O)N[C@@H](Cc2ccc(OCCN)cc2)C(=O)N[C@@H](Cc2ccc3ccccc3c2)C(=O)N[C@@](C)(CCCCN)C(=O)N[C@@H](CCCCNC(C)=O)C(=O)N[C@@H](CC(N)=O)C(=O)NCCC(N)=O)NC(=O)[C@H](CCC(N)=O)NC(=O)[C@H](Cc2c[nH]c3c(C)cccc23)NC(=O)[C@H]([C@@H](C)O)NC1=O [compound 239] |  |  | SIF t½ [1]: 24 h
6 | CC(=O)NCCCC[C@@H]1NC(=O)[C@H](Cc2c[nH]c3c(C)cccc23)NC(=O)[C@H]([C@@H](C)O)NC(=O)[C@H](CC(N)=O)NC(=O)[C@@H](NC(C)=O)C(C)(C)SSC(C)(C)[C@@H](C(=O)N[C@@H](Cc2ccc(OCCN)cc2)C(=O)N[C@@H](Cc2ccc3ccccc3c2)C(=O)N[C@@](C)(CCCCN)C(=O)N[C@@H](CCCCNC(C)=O)C(=O)N[C@@H](CC(N)=O)C(=O)NCCC(N)=O)NC1=O [compound 242] |  |  | SIF t½ [1]: 24 h
7 | CC(=O)NCCCC[C@@H]1NC(=O)[C@H](Cc2c[nH]c3c(C)cccc23)NC(=O)[C@H]([C@@H](C)O)NC(=O)[C@H](CC(N)=O)NC(=O)[C@@H](NC(C)=O)C(C)(C)SSC(C)(C)[C@@H](C(=O)N[C@@H](Cc2ccc(OCCN)cc2)C(=O)N[C@@H](Cc2ccc3ccccc3c2)C(=O)N[C@@](C)(CCCCN)C(=O)N[C@@H](CCCCNC(C)=O)C(=O)N[C@@H](CC(N)=O)C(=O)N[C@@H](CC(C)C)C(N)=O)NC1=O [compound 244] |  | 15 | 
8 | CC(=O)NCCCC[C@@H]1NC(=O)[C@H](Cc2c[nH]c3c(C)cccc23)NC(=O)[C@H]([C@@H](C)O)NC(=O)[C@H](CC(N)=O)NC(=O)[C@@H](NC(C)=O)C(C)(C)SSC(C)(C)[C@@H](C(=O)N[C@@H](Cc2ccc(OCCN)cc2)C(=O)N[C@@H](Cc2ccc3ccccc3c2)C(=O)N[C@@](C)(CCCCN)C(=O)N[C@@H](CCCCNC(C)=O)C(=O)N[C@@H](CC(N)=O)C(=O)N[C@@H](CCCNC(N)=O)C(N)=O)NC1=O [compound 249] | 3 | > 17 | 
9 | CC(=O)NCCCC[C@@H]1NC(=O)[C@H](Cc2c[nH]c3c(C)cccc23)NC(=O)[C@H]([C@@H](C)O)NC(=O)[C@H](CC(N)=O)NC(=O)[C@@H](NC(C)=O)C(C)(C)SSC(C)(C)[C@@H](C(=O)N[C@@H](Cc2ccc(OCCN)cc2)C(=O)N[C@@H](Cc2ccc3ccccc3c2)C(=O)N[C@@](C)(CCCCN)C(=O)N[C@@H](CCCCNC(C)=O)C(=O)N[C@@H](CC(N)=O)C(=O)N[C@H](C(N)=O)C(C)C)NC1=O [compound 250] | 11 | > 19.5 | 
10 | CC(=O)NCCCC[C@@H]1NC(=O)[C@H](Cc2c[nH]c3c(C)cccc23)NC(=O)[C@H]([C@@H](C)O)NC(=O)[C@H](CC(N)=O)NC(=O)[C@@H](NC(C)=O)C(C)(C)SSC(C)(C)[C@@H](C(=O)N[C@@H](Cc2ccc(OCCN)cc2)C(=O)N[C@@H](Cc2ccc3ccccc3c2)C(=O)N[C@@](C)(CCCCN)C(=O)N[C@@H](CCCCNC(C)=O)C(=O)N[C@@H](CC(N)=O)C(=O)N[C@@H](C(N)=O)C(C)C)NC1=O [compound 251] | 20 |  | 
11 | CC(=O)NCCCC[C@@H]1NC(=O)[C@H](Cc2c[nH]c3c(C)cccc23)NC(=O)[C@H]([C@@H](C)O)NC(=O)[C@H](CC(N)=O)NC(=O)[C@@H](NC(C)=O)C(C)(C)SSC(C)(C)[C@@H](C(=O)N[C@@H](Cc2ccc(OCCN)cc2)C(=O)N[C@@H](Cc2ccc3ccccc3c2)C(=O)N[C@@](C)(CCCCN)C(=O)N[C@@H](CCCCNC(C)=O)C(=O)N[C@@H](CC(N)=O)C(=O)N2CCC[C@H]2C(N)=O)NC1=O [compound 253] | 10 |  | 
12 | CC(=O)NCCCC[C@H](NC(=O)[C@](C)(CCCCN)NC(=O)[C@H](Cc1ccc2ccccc2c1)NC(=O)[C@H](Cc1ccc(OCCN)cc1)NC(=O)[C@H]1NC(=O)[C@H](CCCNC(N)=O)NC(=O)[C@H](Cc2c[nH]c3c(C)cccc23)NC(=O)[C@H]([C@@H](C)O)NC(=O)[C@H](CC(N)=O)NC(=O)[C@@H](NC(C)=O)C(C)(C)SSC1(C)C)C(=O)N[C@@H](CC(N)=O)C(=O)N[C@@H](C(N)=O)[C@H](C)O [compound 263] (Ac-[Pen]NT[Trp(7-Me)][Cit][Pen][AEF][2Nal][αMeK]K(Ac)N[dT]-NH2; disulfide 1-6) |  |  | SIF t½ [1]: 24 h
13 | CCCCCCCC(=O)NCCCC[C@@H]1NC(=O)[C@H](Cc2c[nH]c3c(C)cccc23)NC(=O)[C@H]([C@@H](C)O)NC(=O)[C@H](CC(N)=O)NC(=O)[C@@H](NC(C)=O)C(C)(C)SSC(C)(C)[C@@H](C(=O)N[C@@H](Cc2ccc(OCCN)cc2)C(=O)N[C@@H](Cc2ccc3ccccc3c2)C(=O)N[C@@](C)(CCCCN)C(=O)N[C@@H](CCCCNC(C)=O)C(=O)N[C@@H](CC(N)=O)C(=O)N[C@H](CC(C)C)C(N)=O)NC1=O [compound 317] |  | > 24 | half-life at 20 μM [3]: > 24 h; half-life at 20 μM (Stability in rat plasma): > 24 h
14 | CC(=O)NCCCC[C@H](NC(=O)[C@](C)(CCCCN)NC(=O)[C@H](Cc1ccc2ccccc2c1)NC(=O)[C@H](Cc1ccc(OCCN)cc1)NC(=O)[C@H]1NC(=O)[C@H](CCCCNC(=O)CC(F)(F)F)NC(=O)[C@H](Cc2c[nH]c3c(C)cccc23)NC(=O)[C@H]([C@@H](C)O)NC(=O)[C@H](CC(N)=O)NC(=O)[C@@H](NC(C)=O)C(C)(C)SSC1(C)C)C(=O)N[C@@H](CC(N)=O)C(=O)N[C@H](CC(C)C)C(N)=O [compound 319] |  | > 24 | half-life at 20 μM [3]: > 24 h; half-life at 20 μM (Stability in rat plasma): > 24 h
15 | CC(=O)NCCCC[C@@H]1NC(=O)[C@H](Cc2c[nH]c3c(C)cccc23)NC(=O)[C@H]([C@@H](C)O)NC(=O)[C@H](CCC(N)=O)NC(=O)[C@@H](NC(=O)[C@@H](CCCNC(=N)N)NC(C)=O)CCSC[C@@H](C(=O)N[C@@H](Cc2ccc(OCCN)cc2)C(=O)N[C@@H](Cc2ccc3ccccc3c2)C(=O)N[C@@](C)(CCCCN)C(=O)N[C@@H](CCCCNC(C)=O)C(=O)N[C@@H](CC(N)=O)C(N)=O)NC1=O [compound 326] (Ac-[dR][Abu(4-yl)]QT[Trp(7-Me)]K(Ac)C[AEF][2Nal][αMeK]K(Ac)N-NH2; thioether 2-7) | 4 |  | half-life at 20 μM (Stability in rat plasma): > 24 h
16 | CC(=O)NCCCC[C@@H]1NC(=O)[C@H](Cc2c[nH]c3c(C)cccc23)NC(=O)[C@H]([C@@H](C)O)NC(=O)[C@@H](CC(N)=O)NC(=O)[C@@H](NC(C)=O)C(C)(C)SSC(C)(C)[C@@H](C(=O)N[C@@H](Cc2ccc(OCCN)cc2)C(=O)N[C@@H](Cc2ccc3ccccc3c2)C(=O)N[C@@](C)(CCCCN)C(=O)N[C@@H](CCCCNC(C)=O)C(=O)N[C@@H](CC(N)=O)C(=O)N[C@H](CC(C)C)C(N)=O)NC1=O [compound 338] |  | > 24 | half-life at 20 μM [3]: > 24 h; half-life at 20 μM (Stability in rat plasma): > 24 h
17 | CC(=O)NCCCC[C@H](NC(=O)[C@](C)(CCCCN)NC(=O)[C@H](Cc1ccc2ccccc2c1)NC(=O)[C@H](Cc1ccc(OCCN)cc1)NC(=O)[C@H]1NC(=O)[C@H](CCCNC(N)=O)NC(=O)[C@H](Cc2c[nH]c3c(C)cccc23)NC(=O)[C@H]([C@@H](C)O)NC(=O)[C@H](CC(N)=O)NC(=O)[C@@H](NC(C)=O)C(C)(C)SSC1(C)C)C(=O)N[C@@H](CC(N)=O)C(=O)NC(C)(C)C(=O)N[C@@H](CCCNC(=N)N)C(N)=O [compound 343] (Ac-[Pen]NT[Trp(7-Me)][Cit][Pen][AEF][2Nal][αMeK]K(Ac)N[Aib]R-NH2; disulfide 1-6) | 13 | 12 | half-life at 20 μM (Stability in rat plasma): > 24 h
